Source: US10501453B2, “Benzothiazole or benzoxazole compounds as SUMO activators” (Icahn School of Medicine at Mount Sinai, priority 2012, dated 2019)

Experiments:
SUMO E1 enzyme = biological target: T1, SUMO E1 enzyme (Homo sapiens, UniProt Q9UBT2); experiment: Thioester formation between SUMO-1 and SUMO E1 enzyme (gel-based assay); type: biochemical
T1 sequence (Q9UBT2 1-640): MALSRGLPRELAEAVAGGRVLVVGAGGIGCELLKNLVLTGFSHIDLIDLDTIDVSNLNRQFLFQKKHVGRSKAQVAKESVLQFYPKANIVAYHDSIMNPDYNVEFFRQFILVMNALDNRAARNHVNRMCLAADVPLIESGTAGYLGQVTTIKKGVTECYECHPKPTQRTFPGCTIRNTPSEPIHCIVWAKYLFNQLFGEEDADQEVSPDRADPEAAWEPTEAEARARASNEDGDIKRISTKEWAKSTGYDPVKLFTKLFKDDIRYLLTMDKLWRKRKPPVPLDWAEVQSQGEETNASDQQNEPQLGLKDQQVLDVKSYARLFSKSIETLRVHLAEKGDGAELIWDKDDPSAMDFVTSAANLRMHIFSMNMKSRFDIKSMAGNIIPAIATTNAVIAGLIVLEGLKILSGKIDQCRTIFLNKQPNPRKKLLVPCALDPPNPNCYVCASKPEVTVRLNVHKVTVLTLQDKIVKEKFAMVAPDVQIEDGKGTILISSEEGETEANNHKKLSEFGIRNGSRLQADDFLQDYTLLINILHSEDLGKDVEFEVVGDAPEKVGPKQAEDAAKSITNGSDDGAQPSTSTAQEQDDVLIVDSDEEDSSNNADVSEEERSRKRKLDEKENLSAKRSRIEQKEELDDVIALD
T1 sequence (Q9UBE0 1-346): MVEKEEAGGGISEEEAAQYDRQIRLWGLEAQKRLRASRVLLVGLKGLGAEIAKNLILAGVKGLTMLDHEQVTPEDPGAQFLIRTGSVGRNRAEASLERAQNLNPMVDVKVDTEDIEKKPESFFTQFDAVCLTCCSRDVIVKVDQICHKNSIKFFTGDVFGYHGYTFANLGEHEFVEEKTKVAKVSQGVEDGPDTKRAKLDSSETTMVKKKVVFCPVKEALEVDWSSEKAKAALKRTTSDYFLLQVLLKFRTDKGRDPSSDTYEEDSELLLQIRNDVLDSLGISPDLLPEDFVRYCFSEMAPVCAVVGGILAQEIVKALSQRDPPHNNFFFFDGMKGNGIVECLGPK

TAC mice = experiment: Hemodynamics in mouse model of heart failure (TAC); type: in vivo; settings: for ESPVR slope: baseline 3.1; for Tau(1/2): baseline 7.7; for Pmax: baseline 111.1; for HR: baseline 422.1; for +dP/dt Max: baseline 4738.7; for index of contractility ESPVR, dose dependence: infusion of increasing doses
Procedure: Hemodynamics were measured to evaluate the acute effect of Example 1 infusion on the cardiac function of the mouse model of HF. In the first set of experiments, mice were exposed to pressure overload by thoracic aortic constriction (TAC) or sham operation and received either EXAMPLE 1 or vehicle. At two months post-TAC animals developed HF. […] In addition, the positive chronotropic effect of dobutamine was no longer observed in TAC mice (FIG. 9). Following cannulation of the carotid artery and external jugular vein, infusion of EXAMPLE 1 or vehicle was performed as described in Method section. Pressure and conductance catheters were introduced in the LV through the carotid artery. Pressure and volume measurements were made simultaneously and pressure volume curves were constructed as the vehicle or EXAMPLE 1 were infused.
Hemodynamic data were obtained in 1 mg of EXAMPLE 1-treated failing hearts at 30 min and 60 min after compound treatment. […] The improvement occurred within 30 minutes after treatment and maintained for 60 minutes after treatment. […] The effects of EXAMPLE 1 on various hemodynamic parameters are shown in FIG. 9b and Table S1. dP/dt max increased with increasing concentration of EXAMPLE 1 while Tau a parameter of relaxation decreased an indication of enhanced relaxation.
A model of heart failure was created by transaortic constriction in the mouse for 6-8 weeks. Following cannulation of the carotid artery and external jugular vein, infusion of Example 1 or vehicle was performed as shown in the protocol in FIG. 16. Pressure and conductance catheters were introduced in the left ventricle through the carotid artery. Pressure and volume measurements were made simultaneously and pressure volume curves were constructed as the vehicle or Example 1 was infused.

[1] = failing hearts, 1 mg, 30 min and 60 min after treatment

## COc1ccc(-c2nnc(Nc3nc4c(OC)cccc4s3)o2)cc1 [Example 1, N-(4-methoxybenzo[d]thiazol-2-yl)-5-(4-methoxyphenyl)-1,3,4-oxadiazol-2-amine]
SUMO E1 enzyme
  EC50: 1850 ± 960 nM
TAC mice; TAC mice
  Tau (parameter of relaxation) with increasing concentration: decreased
  dP/dt max with increasing concentration: increased
  index of contractility ESPVR, dose dependence: increase in the index of contractility ESPVR in a dose dependent fashion
TAC mice; TAC mice, 0.1 mg/kg
  ESPVR slope: 9.0 mmHg/A
  Tau(1/2): 7.5 ms
  Pmax: 115.1 mmHg
  HR: 417.1 bpm
  +dP/dt Max: 4803.3 mmHg/sec
TAC mice; TAC mice, 1.0 mg/kg
  ESPVR slope: 11.2 mmHg/A
  Tau(1/2): 6.4 ms
  Pmax: 123.6 mmHg
  HR: 422.3 bpm
  +dP/dt Max: 5448.8 mmHg/sec
TAC mice; TAC mice, 10 mg/kg
  ESPVR slope: 20.3 mmHg/A
  Tau(1/2): 6.2 ± 0.4 ms
  Pmax: 124.5 mmHg
  HR: 455.1 bpm
  +dP/dt Max: 6229.4 mmHg/sec
TAC mice; TAC mice, listed as EXAMPLE 1
  index of contractility ESPVR, dose dependence: increase in the index of contractility, ESPVR in a dose dependent manner
TAC mice; failing hearts, 1 mg
  time the improvement was maintained after treatment: 60 min
  time to improvement after treatment: ≤ 30 min
TAC mice; [1]
  end systolic pressure-volume relationship (ESPVR) in the LV versus baseline: significantly steeper
  rate of LV pressure rise (dP/dt max) versus baseline: increased cardiac contractility
